Source: patent publication US7745641B2, “Nitrogen-containing heterocyclic compound” (Kyowa Hakko Kirin Co., Ltd., priority 2005, dated 2010)
Blank lines part the entries; values can stand above or below the molecule they belong to.

How the values were obtained:
[1] = several evaluation models; drugs reported to act on FGFR; cited from earlier work
[2] = tested on: HCT116 cells; experiment: Evaluation of Aurora inhibitory activity by analysis of nuclear morphology (enlarged lobed nuclei); type: cell-based, human; conditions: concentration in the range of 0.1 to 1 μmol/L, 17 hours contact; optimal concentration different in each compound
Experimental: 281 (2003)]. Consequently, enlarged lobed nuclei-inducibility of test compounds for HCT116 cells was evaluated. McCoy's 5A culture medium (GIBCO, Catalogue No. 16600-082) containing 10% bovine fetus serum (GIBCO, Catalogue No. 10099-141) was used for the cultivation of the cells. HCT116 cells were inoculated and, 24 hours later, each test compound was added thereto.

[3] = tested on: Aurora; experiment: Aurora inhibitory activity using Western blotting method (phosphorylation of histone H3 Ser10); type: cell-based, human; conditions: 10 μmol/L, 30 minutes, HCT116 cells accumulated in M phase with Nocodazole
Description: It is known that Aurora phosphorylates Ser10 of histone H3 in the G2/M phase during the cell cycle [Molecular and Cellular Biology, Vol. 22, p. 874 (2002)]. Consequently, the inhibition of phosphorylation of histone H3 Ser10 in cells was detected by a Western blotting method using human colon cancer cell line HCT116 cells accumulated in the M phase. McCoy's 5A culture medium (GIBCO, Catalogue No. 16600-082) containing 10% bovine fetus serum (GIBCO, Catalogue No. 10099-141) was used for the cultivation of the cells. The HCT116 cells were inoculated and then treated with Nocodazole (Sigma Corporation, Catalogue No. M-1404) so that the cell cycle was accumulated to the M phase. A test compound (final concentration: 10 μmol/L) was added thereto, and the cells were incubated at 37° C. for 30 minutes. The cells were then recovered and washed with a phosphate buffered saline (PBS) once. The cells were suspended in a cell-solubilizing solution (50 mmol/L 2-[4-(2-hydroxyethyl)-1-piperazinyl]ethanesulfonic acid (HEPES) (pH 7.4), 150 mmol/L NaCl, 1 mmol/L ethylenediamine-N,N,N′,N′-tetraacetic acid disodium salt dihydrate (EDTA), 2.5 mmol/L ethylene glycol bis(2-aminoethylether)-N,N,N′,N′-tetraacetic acid (EGTA), 0.1% Tween-20 (Bio-Rad Laboratories Inc., Catalogue No. 170-6531), 10% β-glycerophosphate, 1 mmol/L NaF, 0.1 mmol/L Na3VO4, 1 mmol/L Pefabloc SC (Roche Diagnostics K.K., Catalogue No. 1 429 868), and Complete EDTA-free (Roche Diagnostics K.K., Catalogue No. 1 873 580)}, and the suspension was frozen and thawed. Subsequently, the supernatant obtained by centrifugal separation was used as a cell extraction solution. SDS-PAGE was performed using a 12.5% polyacrylamide gel under the condition that the amount of protein per sample was 30 μg in accordance with the method used by Laemmli et al. The protein was transferred onto a PVDF membrane (Millipore Corporation, Catalogue No. IPVH304F0) by a semi-dry method. The membrane was allowed to react with anti-phosphorylated histone H3 Ser10 antibody (Upstate Inc., Catalogue No. 06-570) used as a primary antibody, and an HRP-labeled anti-rabbit IgG antibody (Amersham biosciences, Catalogue No. NA934V) used as a secondary antibody. Subsequently, […] was detected using a SuperSignal West Pico chemiluminescence substrate (Pierce, Catalogue No. 34077).

[4] = biological target: T1, human FGFR3 (Homo sapiens, UniProt P22607); experiment: Fibroblast growth factor receptor 3 (FGFR3) inhibitory activity, time-resolved fluoroimmunoassay; type: biochemical; conditions: 10 μmol/L test compound
T1 construct: the intracellular domain (448-759 amino acids) of human FGFR3; made in house; host or cells: insect cells (baculovirus)
Experimental: In order to determine FGFR3 inhibitory activity, the following method was employed. FGFR3 was prepared by allowing baculovirus that expresses a protein in which glutathione S-transferase (GST) was fused to the N-terminal of the intracellular domain (448-759 amino acids) of human FGFR3 to infect insect cells. Biotinylated polyglutamic acid-tyrosine peptide (Nihon Schering K.K., Catalogue No. 61GT0BAA) used as a substrate was immobilized on a 96-well plate coated with NeutroAvidin (Pierce, Catalogue No. 31000) and was then blocked with 0.25% gelatin to yield a plate for the determination of kinase reaction A solution containing, at final concentrations, 8 μg/L GST-fused FGFR3 protein, 20 mmol/L Tris-Cl (pH 7.5), 0.04% 2-mercaptoethanol, 0.04 mmol/L Na3VO4, 20 mmol/L MgCl2, 5 mmol/L MnCl2, 10 mmol/L ATP, 0.1% bovine serum albumin (BSA; Sigma Corporation, Catalogue No. A4503), 0.1% dimethyl sulfoxide (DMSO), and 10 μmol/L test compound was prepared. Subsequently, 50 μL of the solution was placed in each of the wells of the plate for the determination of kinase reaction, followed by enzymatic reaction at 24° C. for 60 minutes. The plate was washed with TBS-T [10 mM Tris-Cl (pH 7.5), 150 mmol/L NaCl, and 0.05% Tween 20 (Bio-Rad Laboratories Inc., Catalogue No. 170-6531)] four times, and allowed to react with europium-labeled anti-phosphotyrosine antibody (PerkinElmer Inc. Catalogue No. AD0160) at room temperature for 60 minutes. The plate was further washed with TBS-T four times. Subsequently, DELFIA. Enhancement Solution (PerkinElmer Inc. Catalogue No. 1244-105) was added to the plate, and time-resolved fluoroimmunoassay was performed (excitation wavelength: 340 nm, measuring wavelength: 615 nm). The relative activity (%) of a well in which the test compound was added was calculated using the value of a well containing the enzyme and 0.1% DMSO being 100% and the value of a well not containing the enzyme being 0%. The FGFR3 inhibitory activity (%) of the test compound was determined by subtracting the relative activity (%) from 100.

[5] = biological target: T2, Flt-3 (Homo sapiens, UniProt P36888); experiment: Flt-3 inhibitory activity, time-resolved fluoroimmunoassay; type: biochemical; conditions: 10 μmol/L test compound
T2 construct: His tag; purchased Upstate Inc. 14-500
T2 sequence (P36888 564-993 limits assumed): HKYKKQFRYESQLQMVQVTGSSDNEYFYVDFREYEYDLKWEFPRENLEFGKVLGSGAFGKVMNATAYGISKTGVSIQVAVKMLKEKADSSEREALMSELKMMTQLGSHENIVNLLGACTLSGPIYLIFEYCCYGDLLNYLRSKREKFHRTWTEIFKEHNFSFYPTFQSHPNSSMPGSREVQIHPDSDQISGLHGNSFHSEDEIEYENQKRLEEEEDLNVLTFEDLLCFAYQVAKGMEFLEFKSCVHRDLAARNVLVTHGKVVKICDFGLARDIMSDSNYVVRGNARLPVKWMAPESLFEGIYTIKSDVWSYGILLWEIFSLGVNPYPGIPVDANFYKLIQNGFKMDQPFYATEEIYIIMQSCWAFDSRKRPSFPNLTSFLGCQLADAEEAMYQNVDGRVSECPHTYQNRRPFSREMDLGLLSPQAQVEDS
Experimental: Flt-3 inhibitory activity was determined by a method described below.
Biotinylated polyglutamic acid-tyrosine peptide (Nihon Schering K.K., Catalogue No. 61GT0BAA) used as a substrate was immobilized on a 96-well plate (FIA-PLATE BLACK 96 well FALT-BOTTOM HIGH BINDING, Greiner Bio-one Co., Ltd., Catalogue No. 655077) coated with NeutroAvidin (Pierce, Catalogue No. 31000) and was then blocked with 0.25% gelatin to yield a plate for the determination of kinase reaction. A solution containing, at final concentrations, 8 μg/L His-tagged protein-fused Flt-3 (Upstate Inc., Catalogue No. 14-500), 20 mmol/L Tris-Cl (pH 7.5), 0.04% 2-mercaptoethanol, 0.04 mmol/L Na3VO4, 20 mmol/L MgCl2, 5 mmol/L MnCl2, 10 μmol/L ATP, 0.1% BSA, 0.1% DMSO, and […] test compound was prepared. Subsequently, 50 μL of the solution was placed in each of the wells of the plate for the determination of kinase reaction, followed by enzymatic reaction at 24° C. for 60 minutes. The plate was washed with TBS-T [10 mmol/L Tris-Cl (pH 7.5), 150 mmol/L NaCl, and 0.05% Tween 20 (Bio-Rad Laboratories Inc., Catalogue No. 170-6531)] four times, and allowed to react with europium-labeled anti-phosphotyrosine antibody (PerkinElmer Inc. Catalogue No. AD0160) at room temperature for 60 minutes. The plate was further washed with TBS-T four times. Subsequently, time-resolved fluoroimmunoassay was performed (excitation wavelength: 340 nm, measuring wavelength: 615 nm). The relative activity (%) of a well to which the enzyme and the test compound were added was calculated using the value of a well to which the test compound was not added being 100% and the value of a well to which the enzyme and the test compound were not added being 0%. The Flt-3 inhibitory activity (%) of the test compound was determined by subtracting the relative activity (%) from 100.

[6] = tested on: leukemia-transplant mice; conditions: drugs that act on Flt-3; cited from earlier work
[7] = tested on: human-tumor-transplant mouse models; conditions: cited from earlier work

T1 sequence (P22607 448-759): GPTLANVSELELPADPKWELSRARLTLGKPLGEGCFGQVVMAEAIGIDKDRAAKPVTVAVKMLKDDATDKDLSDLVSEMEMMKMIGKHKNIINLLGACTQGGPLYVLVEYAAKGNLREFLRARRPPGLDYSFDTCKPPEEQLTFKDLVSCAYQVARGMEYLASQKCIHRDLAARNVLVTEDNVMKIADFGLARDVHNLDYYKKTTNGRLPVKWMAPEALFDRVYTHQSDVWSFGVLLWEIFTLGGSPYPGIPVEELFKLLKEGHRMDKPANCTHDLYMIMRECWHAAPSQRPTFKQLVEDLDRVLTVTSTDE

Molecule: Cc1c[nH]c(/C=C2\C(=O)Nc3ccccc32)c1CCC(=O)O [SU5402]
- antitumor activity [1]: exhibit an antitumor activity

- inhibition at 10 µM [4]: ≥ 50%
- melting point: 232 to 234 °C
- inhibition at 10 µM [5]: ≥ 50%
Molecule: COc1cc(-c2cc3cc(CN(C)C)ccc3[nH]2)c2c(c1OS(C)(=O)=O)CNC2=O [Compound 362, 4-Methanesulfonyloxy-5-methoxy-7-[1H-5-(dimethylaminomethyl)indol-2-yl]isoindolinone]
- ability of inducing enlarged lobed nuclei for HCT116 cells [2]: show ability of inducing enlarged lobed nuclei
- suppression of the phosphorylation of histone H3 Ser10 in HCT116 cells [3]: almost completely suppressed

Molecule: CO[C@@H]1[C@H](N(C)C(=O)c2ccccc2)C[C@H]2O[C@]1(C)n1c3ccccc3c3c4c(c5c6ccccc6n2c5c31)C(=O)NC4 [PKC412]
- antitumor activity [6]: exhibit an antitumor activity
- antitumor activity [1]: exhibit an antitumor activity

Molecule: CCN(CC)CCCCNc1ncc2cc(-c3cc(OC)cc(OC)c3)c(NC(=O)NC(C)(C)C)nc2n1 [PD173074]
- antitumor activity [1]: exhibit an antitumor activity

Molecule: CCN(CC)CCNC(=O)c1c(C)[nH]c(/C=C2\C(=O)Nc3ccc(F)cc32)c1C [SU11248]
- antitumor activity [6]: exhibit an antitumor activity

- inhibition at 10 µM [4]: ≥ 50%
- melting point: 187 to 189 °C
- inhibition at 10 µM [5]: ≥ 50%
Molecule: COc1cc(-c2cc3cc(CN4CCCC4)ccc3[nH]2)c2c(c1OS(C)(=O)=O)CNC2=O [Compound 366, 4-Methanesulfonyloxy-5-methoxy-7-[1H-5-(pyrrolidin-1-ylmethyl)indol-2-yl]isoindolinone]
- ability of inducing enlarged lobed nuclei for HCT116 cells [2]: show ability of inducing enlarged lobed nuclei
- suppression of the phosphorylation of histone H3 Ser10 in HCT116 cells [3]: almost completely suppressed

- inhibition at 10 µM [4]: ≥ 50%
- melting point: 197 to 199 °C
- inhibition at 10 µM [5]: ≥ 50%
Molecule: COCCN(C)Cc1ccc2[nH]c(-c3cc(OC)c(OS(C)(=O)=O)c4c3C(=O)NC4)cc2c1 [Compound 455, 4-Methanesulfonyloxy-5-methoxy-7-{1H-5-[N-(2-methoxyethyl)methylaminomethyl]indol-2-yl}isoindolinone]
- ability of inducing enlarged lobed nuclei for HCT116 cells [2]: show ability of inducing enlarged lobed nuclei
- suppression of the phosphorylation of histone H3 Ser10 in HCT116 cells [3]: almost completely suppressed

Molecule: CN1CCN(c2ccc3nc(-c4c(N)c5c(F)cccc5[nH]c4=O)[nH]c3c2)CC1 [CHIR-258]
- antitumor activity [6]: exhibit an antitumor activity
- antitumor activity [1]: exhibit an antitumor activity

Molecule: Nc1nc(Nc2ccc(S(N)(=O)=O)cc2)nn1C(=O)c1c(F)cccc1F [JNJ-7706621]
- antitumor activity [7]: exhibits an antitumor activity

Molecule: C[C@]12O[C@H](C[C@]1(O)CO)n1c3ccccc3c3c4c(c5c6ccccc6n2c5c31)CNC4=O [CEP-701]
- antitumor activity [6]: exhibit an antitumor activity

- melting point: > 295 °C
Molecule: O=C1NCc2c(Cl)ccc(-c3cc4cc(C(=O)N5CCN(CCO)CC5)ccc4[nH]3)c21 [Compound 23, 4-Chloro-7-{1H-5-[4-(2-hydroxyethyl)piperazin-1-ylcarbonyl]indol-2-yl}isoindolinone]

- inhibition at 10 µM [4]: ≥ 50%
- melting point: 188 to 190 °C
- inhibition at 10 µM [5]: ≥ 50%
Molecule: COCCNCc1ccc2[nH]c(-c3cc(OC)c(OS(C)(=O)=O)c4c3C(=O)NC4)cc2c1 [Compound 374, 4-Methanesulfonyloxy-5-methoxy-7-[1H-5-(2-methoxyethylaminomethyl)indol-2-yl]isoindolinone]
- ability of inducing enlarged lobed nuclei for HCT116 cells [2]: show ability of inducing enlarged lobed nuclei
- suppression of the phosphorylation of histone H3 Ser10 in HCT116 cells [3]: almost completely suppressed

Molecule: COc1cc2c(N3CCN(C(=O)Nc4ccc(OC(C)C)cc4)CC3)ncnc2cc1OCCCN1CCCCC1 [CT53518]
- antitumor activity [6]: exhibit an antitumor activity

- melting point: 246 °C
Molecule: O=C(NCc1ccccc1)c1ccc2[nH]c(-c3ccc(Cl)c4c3C(=O)NC4)cc2c1 [Compound 57, 4-Chloro-7-[1H-5-(benzylaminocarbonyl)indol-2-yl]isoindolinone]

Molecule: BIBF1000
- antitumor activity [1]: exhibit an antitumor activity
